Source: patent US9175305B2, “Mutant hydroxyphenylpyruvate dioxygenase polypeptides and methods of use” (Syngenta Participations AG, priority 2009, dated 2015)
Values joined by “and” are separate entries in the source; they are usually repeats but may differ in a detail not shown here. Equal values may be shown once. Read-outs that look alike come from different tables or passages of the source.

Legend:
Assay in all cases: biochemical
Format in all cases: binding
HPPD SEQ ID NO:14 = HPPD SEQ ID NO:14 (Avena sativa, UniProt A0ACD5V6K6, DEL109-109)
Description: (§1) On rates (governed by an association rate constant, kon) for the formation of the enzyme: inhibitor complexes, EI and off rates (governed by a dissociation rate constant, koff) were determined by methods known in the art and essentially as described in Hawkes et al. (2001) Proc. Bright. Crop. Prot. Conf. Weeds, 2:563-568 and in PCT Patent App. Pub. No. WO 02/46387).
(§2) For example, on rates were measured by, at zero time, adding ˜60 pmoles HPPD to 50 mM BisTrisPropane buffer at pH7.0 and at 25° C. containing 25 mM Na ascorbate, 4 μg/ml bovine catalase (Sigma, St. Louis, Mo.) and an excess (˜300 pmoles) of ^14C inhibitor in a total assay volume of 425 μl and, at various time points (0-180 s), quenching the radiolabel binding reaction by addition and rapid mixing of 100 μl ‘cold’ 1 mM structure A. Protein samples quenched at different times were then exchanged into 50 mM BisTrisPropane buffer at pH 7.0 containing 0.1M KCl by rapid chromatography down a NAP5 G25 Sephadex column (GE Healthcare Ltd, Buckinghamshire UK) and the amount of ^14C bound to protein fractions quantified in Optiphase scintillant using a Tri-Carb 2900TR scintillation counter (Perkin Elmer, Wellesley, Mass.). The data were fit according to the scheme below in order to derive the value of the apparent second order rate constant, k2, governing the association rate of enzyme and radiolabelled inhibitor. A range of enzyme and inhibitor concentrations were used. […] Further example methods are described in PCT Patent App. Pub. No. WO 02/46387.
(§3) Off rates (k1 in the scheme below) were derived from exchange rate studies where either the test inhibitor, I, or its exchange partner, J were radiolabelled and the data fit according to the scheme below. As noted in Hawkes et al. (2001) Proc. Bright. Crop. Prot. Conf.
(§4) After 30 minutes the exchange reaction was initiated with addition of 100 μl 1 mM ‘cold’ structure A with thorough mixing, and, immediately, 150 μl were withdrawn and loaded onto a NAP5 column, the protein exchanged into 50 mM BisTrisPropane buffer at pH 7.0 containing 0.1M KCl by rapid (<2 min) chromatography down a NAP5 G25 Sephadex column (GE Healthcare Ltd, Buckinghamshire UK) and the amount of ^14C bound to protein measured by Optiphase scintillant using a Tri-Carb 2900TR scintillation counter (Perkin Elmer, Wellesley, Mass.). Further aliquots were removed and measured in the same way at various times over minutes or hours as required in order to determine the exchange kinetics.
(§5) After 30 minutes the reaction vessel was transferred to ice. After a further 10 minutes at ice temperature the exchange reaction was initiated by addition of 100 μl 1 mM Structure A, with thorough mixing, and 150 μl was withdrawn and loaded onto a NAP5 column in a cold room at ˜5-8° C. in order to quantify the amount of radiolabel remaining bound to the protein at various time from the start of exchange at ice temperature.
(§6) Off rates (k1) of HPPD inhibitors that are not available radiolabelled or that present other measurement problems (for example high levels of background non-specific protein-binding which can be measured as radiolabel binding that persists in the presence of high concentrations of ‘cold’ inhibitor) may be measured indirectly. […] Exemplary methods are also described in PCT Patent App. Pub. No. WO 02/46387.

HPPD SEQ ID NO:17 = HPPD SEQ ID NO:17 (Avena sativa, UniProt A0ACD5V6K6, DEL109-109/Q298S)
Description: as §1, §2, §3, §4, §5, §6

HPPD SEQ ID NO:18 = HPPD SEQ ID NO:18 (Avena sativa, UniProt A0ACD5V6K6, DEL109-109/I285T)
Description: as §1, §2, §3, §4, §5, §6

HPPD SEQ ID NO:21 = HPPD SEQ ID NO:21 (Avena sativa, UniProt A0ACD5V6K6, DEL109-109/I285V)
Description: as §1, §2, §3, §4, §5, §6

HPPD SEQ ID NO:24 = HPPD SEQ ID NO:24 (Avena sativa, UniProt A0ACD5V6K6, DEL109-109/L359M)
Description: as §1, §2, §3, §4, §5, §6

HPPD SEQ ID NO:16 = HPPD SEQ ID NO:16 (Avena sativa, UniProt A0ACD5V6K6, DEL109-109/Q298G)
Description: as §1, §2, §3, §4, §5, §6

HPPD SEQ ID NO:25 = HPPD SEQ ID NO:25 (Avena sativa, UniProt A0ACD5V6K6, DEL109-109/L359A)
Description: as §1, §2, §3, §4, §5, §6

HPPD SEQ ID NO:22 = HPPD SEQ ID NO:22 (Avena sativa, UniProt A0ACD5V6K6, DEL109-109/L256M)
Description: as §1, §2, §3, §4, §5, §6

HPPD SEQ ID NO:23 = HPPD SEQ ID NO:23 (Avena sativa, UniProt A0ACD5V6K6, A242W/DEL109-109); settings: read-out: kon (k2)
Description: as §1, §2, §3, §4, §5, §6

HPPD SEQ ID NO:20 = HPPD SEQ ID NO:20 (Avena sativa, UniProt A0ACD5V6K6, DEL109-109/I285S)
Description: as §1, §2, §3, §4, §5, §6

Sequence of HPPD SEQ ID NO:18 (A0ACD5V6K6 entry or part of it DEL109-109/I285T): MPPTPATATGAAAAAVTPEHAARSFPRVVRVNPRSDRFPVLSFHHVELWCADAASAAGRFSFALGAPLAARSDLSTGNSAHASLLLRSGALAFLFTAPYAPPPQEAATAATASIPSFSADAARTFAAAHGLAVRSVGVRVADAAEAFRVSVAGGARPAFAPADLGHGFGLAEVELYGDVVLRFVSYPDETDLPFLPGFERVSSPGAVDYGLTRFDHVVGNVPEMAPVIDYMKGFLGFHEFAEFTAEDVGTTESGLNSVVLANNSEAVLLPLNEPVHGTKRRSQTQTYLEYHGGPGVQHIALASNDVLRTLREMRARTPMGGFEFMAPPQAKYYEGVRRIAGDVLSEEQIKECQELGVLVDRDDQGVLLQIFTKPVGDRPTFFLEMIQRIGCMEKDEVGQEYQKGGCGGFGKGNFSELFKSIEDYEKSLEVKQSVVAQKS
Sequence of HPPD SEQ ID NO:20 (A0ACD5V6K6 entry or part of it DEL109-109/I285S): as the sequence (A0ACD5V6K6 entry or part of it DEL109-109/I285T) above, with T284S counted along it
Sequence of HPPD SEQ ID NO:22 (A0ACD5V6K6 entry or part of it DEL109-109/L256M): as the sequence (A0ACD5V6K6 entry or part of it DEL109-109/I285T) above, with L255M, T284I counted along it
Sequence of HPPD SEQ ID NO:21 (A0ACD5V6K6 entry or part of it DEL109-109/I285V): as the sequence (A0ACD5V6K6 entry or part of it DEL109-109/I285T) above, with T284V counted along it
Sequence of HPPD SEQ ID NO:17 (A0ACD5V6K6 entry or part of it DEL109-109/Q298S): as the sequence (A0ACD5V6K6 entry or part of it DEL109-109/I285T) above, with T284I, Q297S counted along it
Sequence of HPPD SEQ ID NO:14 (A0ACD5V6K6 entry or part of it DEL109-109): as the sequence (A0ACD5V6K6 entry or part of it DEL109-109/I285T) above, with T284I counted along it
Sequence of HPPD SEQ ID NO:24 (A0ACD5V6K6 entry or part of it DEL109-109/L359M): as the sequence (A0ACD5V6K6 entry or part of it DEL109-109/I285T) above, with T284I, L358M counted along it
Sequence of HPPD SEQ ID NO:25 (A0ACD5V6K6 entry or part of it DEL109-109/L359A): as the sequence (A0ACD5V6K6 entry or part of it DEL109-109/I285T) above, with T284I, L358A counted along it
Sequence of HPPD SEQ ID NO:16 (A0ACD5V6K6 entry or part of it DEL109-109/Q298G): as the sequence (A0ACD5V6K6 entry or part of it DEL109-109/I285T) above, with T284I, Q297G counted along it
Sequence of HPPD SEQ ID NO:23 (A0ACD5V6K6 entry or part of it DEL109-109/A242W): as the sequence (A0ACD5V6K6 entry or part of it DEL109-109/I285T) above, with A241W, T284I counted along it

COCCOCc1nc(C(F)(F)F)ccc1C(=O)C1C(=O)C2CCC(C2)C1=O (centres unmarked) [Structure C]
On rate, activity-based method (HPPD SEQ ID NO:14; 25° C., enzyme activity-based method): 7800 M⁻¹ s⁻¹ and 7600 M⁻¹ s⁻¹ and 7200 M⁻¹ s⁻¹ and 10000 M⁻¹ s⁻¹
kon (HPPD SEQ ID NO:14; 25° C., enzyme activity-based method, read-out: On rate, activity-based method): 7500 M⁻¹ s⁻¹
Kd/Km ratio (HPPD SEQ ID NO:14; HPPD SEQ ID NO:14): 0.0017
Kd (HPPD SEQ ID NO:14; Kd, estimated from on and off rates, 25° C.): 0.0094 µM
koff (HPPD SEQ ID NO:14; read-out: koff (k1)): 7.04e-05 s⁻¹
kon (HPPD SEQ ID NO:14; read-out: kon (k2)): 7500 M⁻¹ s⁻¹
Kd (HPPD SEQ ID NO:17): 0.0071 µM
koff (HPPD SEQ ID NO:17; read-out: koff (k1)): 6.65e-05 s⁻¹
kon (HPPD SEQ ID NO:17; read-out: kon (k2)): 9400 M⁻¹ s⁻¹
Kd (HPPD SEQ ID NO:18): 0.0119 µM
koff (HPPD SEQ ID NO:18; read-out: koff (k1)): 9e-05 s⁻¹
kon (HPPD SEQ ID NO:18; read-out: kon (k2)): 7500 M⁻¹ s⁻¹
Kd (HPPD SEQ ID NO:21): 0.0119 µM
koff (HPPD SEQ ID NO:21; read-out: koff (k1)): 9e-05 s⁻¹
kon (HPPD SEQ ID NO:21; read-out: kon (k2)): 7500 M⁻¹ s⁻¹
Kd (HPPD SEQ ID NO:24): 0.016 µM
SEQ ID NO:24 superior to SEQ ID NO:14 (in vitro, in particular off rate data) (HPPD SEQ ID NO:24): neutral
koff (HPPD SEQ ID NO:24; read-out: koff (k1)): 7.82e-05 s⁻¹
kon (HPPD SEQ ID NO:24; read-out: kon (k2)): 4900 M⁻¹ s⁻¹
Kd (HPPD SEQ ID NO:16): 0.0267 µM
koff (HPPD SEQ ID NO:16; read-out: koff (k1)): 0.00012 s⁻¹
kon (HPPD SEQ ID NO:16; read-out: kon (k2)): 4500 M⁻¹ s⁻¹
Kd (HPPD SEQ ID NO:25): 0.023 µM
koff (HPPD SEQ ID NO:25; read-out: koff (k1)): 0.000113 s⁻¹
kon (HPPD SEQ ID NO:25; read-out: kon (k2)): 4800 M⁻¹ s⁻¹
Kd (HPPD SEQ ID NO:22): 0.0239 µM
koff (HPPD SEQ ID NO:22; read-out: koff (k1)): 9e-05 s⁻¹
kon (HPPD SEQ ID NO:22; read-out: kon (k2)): 4400 M⁻¹ s⁻¹
kon (HPPD SEQ ID NO:23): 7500 M⁻¹ s⁻¹
Kd (HPPD SEQ ID NO:20): 0.0066 µM
koff (HPPD SEQ ID NO:20; read-out: koff (k1)): 6.6e-05 s⁻¹
kon (HPPD SEQ ID NO:20; read-out: kon (k2)): 10100 M⁻¹ s⁻¹
